IC50 data for 8 compounds are collected here from patent publication US8614218B2, “Fused bicyclic pyrimidines” (Bayer Intellectual Property GmbH, priority 2007, dated 2013).

Each structure is given as a SMILES string.

What all share (type): cell-based
The subject of one experiment is A549 cells. Kind of experiment: Cellular proliferation/cytotoxicity assay (Alamar Blue), A549. To be noted: Homo sapiens, 72 h, Alamar Blue (Resazurin), read-out: Anti-proliterative/Cytotoxic activity (A549 cells). The method, boiled down: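 OvCAR3 (10000 cells/well) or A549 (2000 cells/well) were dosed 24 h after seeding and exposed for 72 h at 37 °C, 5% CO2, in duplicate or more. Resazurin was added for 4 h and fluorescence read at 544/590 nm. Viability is relative to untreated 0.5% DMSO controls, with IC50 by non-linear regression.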
A general note: Resazurin is reduced to fluorescent resorufin, in cell work by metabolically active cells.

The next experiment deals with phospho-GSK3 (Ser9). Put plainly: Cellular pGSK3 assay (phospho-GSK3 ELISA). The following applies: Homo sapiens, MCF7 cells, 48 h incubation, read-out: Cellular pGSK3 pathway assay. The method, then:
In order to study the cellular activity of the compounds according to the present invention, an ELISA-based assay has been established for the phosphorylated protein glycogen synthetase kinase 3 (GSK3). The assay is based on a solid phase sandwich ELISA that detects endogenous levels of phosphorylated GSK3 using a phospho-GSK3 (Ser9) specific antibody (BioSource International, Inc.; Catalog #KHO0461). After incubation with cell lysates, the coated antibody captures the phosphorylated GSK3 protein. Following extensive washing, GSK3 polyclonal antibody is added to detect the captured phospho-GSK3 protein. Secondary antibody (anti-rabbit IgG-HRP) is then used to recognize the bound detection antibody. After the second incubation and washing to remove all the excess anti-rabbit IgG-HRP, a substrate solution is added, which is acted upon by the bound enzyme to produce color. The intensity of this colored product is directly proportional to the concentration of GSK-3β [pS9] present in the original specimen. MCF7 cells (ATCC HTB-22) were seeded into 96 well fate bottom plates at a density of 10000 cells/well. After 24 h 1 μl each of the compound dilutions (test compounds were dissolved as 10 mM solutions in dimethylsulfoxide (DMSO) and subsequently diluted) were added into each well of the 96 well plates and incubated for 48 h at 37° C. in a humidified atmosphere containing 5% CO2. Cells were harvested and lysed in cell extraction buffer (10 mM Tris, pH 7.4, 100 mM NaCl, 1 mM EDTA, 1 mM EGTA, 1 mM NaF, 20 mM Na4P2O7, 2 mM Na3VO4, 1% Triton X-100, 10 vol % glycerol, 0.1 vol % SDS, 0.5 vol % deoxycholate, 1 mM phenylmethylsulfonylfluoride (PMSF)). The lysate were centrifuged for 10 min. at 4° C. and the supernatant were transferred to a new tube. 50 μl of sample diluent (standard diluent buffer, Biosource) were added and 100 μl of cell lysate transferred into the tube and vortexed. 100 μl of each diluted cell lysate were added to the appropriate ELISA well plate and incubated for 3 h at room temperature. The plates were washed 4 times with 1× wash buffer (Biosource). 50 μl of detection antibody (GSK3 (Ser9) detection antibody; BioSource) were added to each well and incubated for 30 min. at room temperature. The washing procedure was repeated between each step. 100 μl of HRP-linked secondary antibody (anti-mouse IgG HRP-linked antibody) were added to each well and incubated for 30 min. at room temperature. 100 μl of TMB substrate (0.05 vol % 3,3′,5,5′ tetramethylbenzidine, 0.1 vol % hydrogen peroxide, complex polypeptides in a buffered solution; Biosource) were added to each well and incubated for 30 min. at room temperature. Finally 100 μl of Stop solution (0.05 vol % α and β unsaturated carbonyl compound) were added to each well and the plate were shaked gently for a few seconds. The absorbance was measured at λ=450 nm (Wallac Victor2; Perkin Elmer, USA) within 30 min. after adding the stop solution.
The analysis of the data was performed using a statistical program (Excel; Microsoft, USA) and the IC50 of pGSK3 inhibition was determined.
Background: An ELISA detects its analyte on a solid surface through an enzyme-linked reagent.

The next experiment concerns phospho-Akt (Ser473). Kind of experiment: Cellular PI3K/Akt pathway assay (phospho-Akt ELISA). To be noted: Homo sapiens, MCF7 cells, β-Heregulin stimulated, 48 h incubation. An excerpt: Cellular PI3K/Akt Pathway Assay
In order to study the cellular activity of the compounds according to the present invention, an Enzyme Linked Immunosorbent Assay (ELISA)-based assay has been used specific phospho-AKT. The assay is based on a Sandwich ELISA kit (PathScan™ Phospho-Akt1 (Ser473); Cell Signaling, USA; #7160). The ELISA Kit detects endogenous levels of phosphorylated Akt protein. A phospho-Akt (Ser473) antibody (Cell Signaling, USA; #9271) has been coated onto the microwells. After incubation with cell lysates, the coated antibody captures the phosphorylated Akt protein. Following extensive washing, Akt1 monoclonal antibody (Cell Signaling, USA; #2967) is added to detect the captured phospho-Akt1 protein. HRP-linked anti-mouse antibody (HRP: horseradish peroxidase; Cell Signaling, USA; #7076) is then used to recognize the bound detection antibody. HRP substrate (=3,3′,5,5′-tetramethylbenzidine (TMB); Cell Signaling, USA; #7160) is added to develop colour. The magnitude of optical density for this developed color is proportional to the quantity of phosphorylated Akt protein.
MCF7 cells (ATCC HTB-22) are seeded into 96 well fate bottom plates at a density of 10000 cells/well. 24 hours after seeding, the cells are serum starved using low-serum medium (IMEM media including 0.1% charcoal treated FCS (FCS: fetal calf serum)). After 24 hours 1 μl each of the compound dilutions (test compounds were dissolved as 10 mM solutions in dimethylsulfoxide (DMSO) and subsequently diluted) are added into each well of the 96 well plates and incubated for 48 h at 37° C. in a humidified atmosphere containing 5% CO2. To stimulate Akt phosphorylation, β-Heregulin (20 ng/ml β-HRG) is added in parallel to the compounds. Wells containing unstimulated control cells (no β-Heregulin stimulation) are incubated with or without the diluted compound. Wells containing untreated control cells (no compound) are filled with medium containing 0.5% v:v DMSO and are or are not stimulated with β-Heregulin.
Cells are harvested and lysed with brief sonification in 1× cell lysis buffer (20 mM Tris (pH7.5), 150 mM NaCl, 1 mM ethylene diaminetetraacetate (EDTA), 1 mM ethylene glycolbis(2-aminoethyl)-N,N,N′,N′-tetraacetic acid (EGTA), 1 vol % Triton X-100, 2.5 mM sodium pyrophosphate, 1 mM β-glycerolphosphate, 1 mM Na3VO4, 1 μg/ml leupeptin). The lysate is centrifuged for 10 min. at 4° C. and the supernatant is transferred to a new tube. 100 μl of sample diluent (0.1 vol % Tween-20, 0.1 vol % sodium azide in phosphate buffered saline (PBS)) are added to a microcentrifuge tube and 100 μl of cell lysate are transferred into the tube and vortexed. 100 μl of each diluted cell lysate are added to the appropriate ELISA well, and incubated overnight at 4° C. The plates are washed 4 times with 1× wash buffer (1 vol % tween-20, 0.33 vol % thymol, in PBS). Next 100 μl of detection antibody (Akt1 (2H10) monoclonal detection antibody; Cell Signaling, USA; #2967) are added to each well and incubation continued for 1 h at 37° C. The washing procedure is repeated between each step. 100 μl of secondary antibody (anti-mouse IgG HRP-linked antibody; Cell Signaling, USA; #7076) are added to each well and incubated for 30 min. at 37° C. Than, 100 μl of TMB substrate (0.05% 3,3′,5,5′ tetramethylbenzidine, 0.1% hydrogen peroxide, complex polypeptides in a buffered solution; Cell Signaling, USA; #7160) are added to each well and incubated for 30 min. at 25° C. Finally 100 μl of STOP solution (0.05 vol % α and β unsaturated carbonyl compound) are added to each well and the plate are shaked gently. The absorbance is measured at λ=450 nm (Wallac Victor2; Perkin Elmer, USA) within 30 min. after adding the STOP solution. The analysis of the data is performed using a statistical program (Excel; Microsoft, USA). Preferred compounds show an inhibitory activity towards Akt phosphorylation below 10 μM.

Regarding `CC(C)c1nc2nc(-c3ccc(CN4CCC(c5n[nH]c(-c6ccccn6)n5)CC4)cc3)c(-c3ccccc3)cn2n1` [Example 28, 2-Isopropyl-6-phenyl-5-(4-{[4-(5-pyridin-2-yl-1H-1,2,4-triazol-3-yl)piperidin-1-yl]methyl}phenyl)[1,2,4]triazolo[1,5-a]pyrimidine], the IC50 in the experiment on A549 cells was less than 10 µM; with phospho-GSK3 (Ser9), 1 to 10 µM.
Consider `FC(F)(F)c1cn2cc(-c3ccccc3)c(-c3ccc(CN4CCC(c5n[nH]c(-c6ccccn6)n5)CC4)cc3)nc2n1` [Example 26, 6-phenyl-7-(4-{[4-(5-pyridin-2-yl-1H-1,2,4-triazol-3-yl)piperidin-1-yl]methyl}phenyl)-2-(trifluoromethyl)imidazo[1,2-a]pyrimidine], for which the IC50 in the experiment on phospho-Akt (Ser473) is less than 1 µM; with A549 cells, less than 10 µM.
Regarding `Cc1nc2nc(-c3ccc(CN4CCC(c5n[nH]c(-c6ccccn6)n5)CC4)cc3)c(-c3ccccc3)c(C)n2n1` [Example 39, 2,7-Dimethyl-6-phenyl-5-(4-{[4-(5-pyridin-2-yl-1H-1,2,4-triazol-3-yl)piperidin-1-yl]methyl}phenyl)[1,2,4]triazolo[1,5-a]pyrimidine], the IC50 in the experiment with phospho-Akt (Ser473) is less than 1 µM; in the experiment with A549 cells, less than 10 µM.
On the same counts, the results for `Cc1cc2nc(-c3ccc(CN4CCC(c5n[nH]c(-c6ccccn6)n5)CC4)cc3)c(-c3ccccc3)c(C)n2n1` [Example 49, 2,7-Dimethyl-6-phenyl-5-(4-{[4-(5-pyridin-2-yl-1H-1,2,4-triazol-3-yl)piperidin-1-yl]methyl}phenyl)pyrazolo[1,5-a]pyrimidine] are less than 1 µM and less than 10 µM.
The like results for `c1ccc(-c2nc(C3CCN(Cc4ccc(-c5nc6ccnn6cc5-c5ccsc5)cc4)CC3)n[nH]2)nc1` [Example 50, 5-(4-{[4-(5-Pyridin-2-yl-1H-1,2,4-triazol-3-yl)piperidin-1-yl]methyl}phenyl)-6-(3-thienyl)pyrazolo[1,5-a]pyrimidine] were, in that order, less than 1 µM and less than 10 µM.
As to `Cc1c(-c2ccccc2)c(-c2ccc(CN3CCC(c4n[nH]c(-c5ccccn5)n4)CC3)cc2)nc2nccn12` [Example 27, 5-methyl-6-phenyl-7-(4-{[4-(5-pyridin-2-yl-1H-1,2,4-triazol-3-yl)piperidin-1-yl]methyl}phenyl)imidazo[1,2-a]pyrimidine], the IC50 is more than 10 µM with phospho-Akt (Ser473) and 1 to 10 µM in the experiment on phospho-GSK3 (Ser9).
Take `Cc1nc2nc(-c3ccc(CN4CCC(c5n[nH]c(-c6ncccn6)n5)CC4)cc3)c(-c3ccccc3)cn2n1` [Example 45, 2-Methyl-6-phenyl-5-(4-{[4-(5-pyrimidin-2-yl-1H-1,2,4-triazol-3-yl)piperidin-1-yl]methyl}phenyl)[1,2,4]triazolo[1,5-a]pyrimidine]: the IC50 in the experiment with phospho-Akt (Ser473) was less than 1 µM; in the experiment with A549 cells, more than 10 µM.
Regarding `COc1c(-c2ccccc2)c(-c2ccc(CN3CCC(c4n[nH]c(-c5ccccn5)n4)CC3)cc2)nc2ccnn12` [Example 29, 7-Methoxy-6-phenyl-5-(4-{[4-(5-pyridin-2-yl-1H-1,2,4-triazol-3-yl)piperidin-1-yl]methyl}phenyl)pyrazolo[1,5-a]pyrimidine], the results for the IC50 with A549 cells and in the experiment on phospho-GSK3 (Ser9) were more than 10 µM and 1 to 10 µM, respectively.
